Experiments:
[1] = system: Human immunodeficiency virus 1; assay: Antiviral activity against HIV1 3B in MT4 cells after 4 days by MTT method; assay type: functional, organism-based; settings: Human immunodeficiency virus 1, 3B, MT4, 96 h
[2] = system: Human immunodeficiency virus 2; assay: Antiviral activity against HIV2 ROD in MT4 cells after 4 days by MTT method; assay type: functional, organism-based; settings: Human immunodeficiency virus 2, ROD, MT4, 96 h
[3] = Cytotoxicity against MT4 cells after 4 days by MTT method; assay type: cell-based; settings: human
[4] = Selectivity index, ratio of CC50 for MT4 cells to IC50 for HIV1 3B; assay type: functional

Row | SMILES | IC50 [1] | IC50 [2] | CC50 at 96 h [3] | Ratio CC50/IC50 [4]
1 | C=CCOCn1c(C(=O)c2cccc3ccccc23)c(CC)c(=O)[nH]c1=O | 0.19 µM | > 45.6 µM | 45.6 µM | 243
2 | CCc1c(C(=O)c2cccc3ccccc23)n(C/C=C/C(=O)OC)c(=O)[nH]c1=O | 0.71 µM | > 38.6 µM | 38.6 µM | 54
3 | CCc1c(C(=O)c2cccc3ccccc23)n(CC#Cc2ccccc2)c(=O)[nH]c1=O | 0.21 µM | > 17 µM | 17 µM | 83
4 | CCc1c(C(=O)c2cccc3ccccc23)n(COCc2ccc([N+](=O)[O-])cc2)c(=O)[nH]c1=O | 0.54 µM | > 30.5 µM | 30.5 µM | 55
5 | C=CCOCn1c(C(=O)c2cccc3ccccc23)c(C)c(=O)[nH]c1=O | 2.11 µM | > 131 µM | 131 µM | 62
6 | CCc1c(C(=O)c2cccc3ccccc23)n(COCC2CC2)c(=O)[nH]c1=O | 0.93 µM | > 45.3 µM | 45.3 µM | 48
7 | CC(=O)OC/C=C(\C)Cn1c(C(=O)c2cccc3ccccc23)c(C)c(=O)[nH]c1=O | 41.4 µM | > 200 µM | 200 µM | 5
8 | CCOCn1c(C(=O)c2cccc3ccccc23)c(CC)c(=O)[nH]c1=O | 0.28 µM | > 23 µM | 23 µM | 78
9 | Cc1c(C(=O)c2cccc3ccccc23)n(COCC2CC2)c(=O)[nH]c1=O | 7.69 µM | > 77.6 µM | 77.6 µM | 10
10 | CCOCn1c(C(=O)c2cccc3ccccc23)c(C)c(=O)[nH]c1=O | 4.02 µM | > 51.7 µM | 51.7 µM | 13
11 | CC(C)=CCn1c(C(=O)c2cccc3ccccc23)c(C(C)C)c(=O)[nH]c1=O | 2.42 µM | > 30.8 µM | 30.8 µM | 13
12 | Cc1c(C(=O)c2cccc3ccccc23)n(COCc2ccccc2)c(=O)[nH]c1=O | 1.6 µM | > 45.6 µM | 45.6 µM | 29
13 | CCc1c(C(=O)c2cccc3ccccc23)n(COCc2ccccc2)c(=O)[nH]c1=O | 0.15 µM | > 38.6 µM | 38.6 µM | 257
14 | CCc1c(C(=O)c2cccc3ccccc23)n(CC2CC=CC2)c(=O)[nH]c1=O | 0.22 µM | > 18.6 µM | 18.6 µM | 84
15 | CCc1c(C(=O)c2cccc3ccccc23)n(COCC=C(C)C)c(=O)[nH]c1=O | 6.89 µM | > 36.4 µM | 36.4 µM | 5
16 | Cc1c(Sc2ccccc2)n(COCCO)c(=O)[nH]c1=O [HEPT] | – | > 406 µM | 405 µM | 80
17 | CC(C)c1c(C(=O)c2cccc3ccccc23)n(COCc2ccccc2)c(=O)[nH]c1=O | 0.11 µM | > 26.9 µM | 26.9 µM | 233
18 | CC(C)=CCn1c(C(=O)c2cccc3ccccc23)c(C)c(=O)[nH]c1=O | > 44.6 µM | > 131 µM | 44.6 µM | <1
19 | O=c1[nH]cnc2c1ncn2[C@H]1CC[C@@H](CO)O1 [DIDANOSINE] | – | – | ≥ 529 µM | >=98
20 | Cc1c(C(=O)c2cccc3ccccc23)n(CC#Cc2ccccc2)c(=O)[nH]c1=O | 2.79 µM | > 29.9 µM | 29.9 µM | 11

Reference: ChEMBL document CHEMBL1142880, “Synthesis and anti-HIV activity evaluation of 1-[(alkenyl or alkynyl or alkyloxy)methyl]-5-alkyl-6-(1-naphthoyl)-2,4-pyrimidinediones as novel non-nucleoside HIV-1 reverse transcriptase inhibitors” (Eur J Med Chem, 2007)
